Test system: ventilator-associated pneumonia caused by carbapenem-resistant Acinetobacter baumannii
Test: Clinical and microbiological outcomes of CMS nebulization
Assay type: in vivo
Conditions: of 20 patients
Method: Patients were treated with CMS (Xellia Pharmaceuticals ApS, Copenhagen, Denmark) at a total of 3.75 MIU (equivalent to 300 mg of CMS or 112.5 mg of CBA) administered four times a day at 6 h intervals. CMS was dissolved in 5 mL of normal saline and administered over 30 min through a jet nebulizer (Sileo 54, Macjin Medical, Seoul, Republic of Korea) connected to the ventilator circuit. Bronchoalveolar lavage fluid (BALF) was obtained by instilling 20 mL of normal saline into the right middle lobe or left lingular segmental bronchus using a bronchoscope, followed by immediate aspiration and collection into a syringe. Samples were collected immediately before the nebulization treatment and at 1, 3, and 5 h after the start of the treatment. Blood samples were collected before the nebulization treatment and at 1, 2, 3, and 5 h thereafter. Both BALF and blood samples were centrifuged at 3000× g for 10 min within 1 h of collection and the supernatant was isolated. Samples were then stored in a refrigerator at a temperature below −70 °C.
Clinical outcomes were classified as cured (resolution of symptoms/signs of pneumonia plus improvement or lack of progression in radiologic pulmonary infiltrates, and antibiotics-free), improved (significant improvement of symptoms/signs of pneumonia plus improvement or lack of progression in radiologic abnormalities, but remaining on antibiotic treatment), and failed (persistent or worsening of symptoms/signs of pneumonia, persistent or progression of radiologic pulmonary infiltrates that required additional antibiotic therapy, or death).

For Colistimethate sodium [CMS], the “Clinical outcomes: failed, number of patients” value (nebulized CMS 3.75 MIU/day) was 4, the “Microbiologic outcomes: eradication, number of patients” value (nebulized CMS 3.75 MIU/day) was 8 and the “Microbiologic outcomes: indeterminate, number of patients” value (nebulized CMS 3.75 MIU/day) was 2. For the same substance, the “Microbiologic outcomes: persistence, number of patients” value (nebulized CMS 3.75 MIU/day) was 10, the “Survival: no, number of patients” value (nebulized CMS 3.75 MIU/day) was 15 and the “Survival: yes, number of patients” value (nebulized CMS 3.75 MIU/day) was 5. The “Clinical outcomes: cured, number of patients” value (nebulized CMS 3.75 MIU/day in four doses at 6 h intervals) was 16.

— article PMC10967270, “Intrapulmonary and Systemic Pharmacokinetics of Colistin Following Nebulization of Low-Dose Colistimethate Sodium in Patients with Ventilator-Associated Pneumonia Caused by Carbapenem-Resistant Acinetobacter baumannii” (Antibiotics, 2024)
